Test results as given in US7935335B2, “Strains belonging to the genus Paenibacillus and method of controlling plant disease by using these strains or culture thereof” (Kaken Pharmaceutical Co., Ltd., priority 2004, dated 2011).
Where a SMILES comes first, the peptide text is derived from it. Bridges are numbered along the chain shown (N, C = ends). The star is where a group is joined. ξ: configuration not given here. Pentadecanoyl(3ξ-OH,15-Gua) = N=C(N)NCCCCCCCCCCCCC(O)CC(=O)*

Columns and labels:
[1] = tested on: parsley cultured cells; assay: Activity of inducing disease resistance: elicitor responsiveness of parsley cultured cells, phytoalexin detection by fluorescence; assay type: cell-based; details: Evaluation Example 1; tested as 3:2 mixture
[2] = tested on: parsley cultured cells; assay: as above; assay type: cell-based; details: for Elicitor responsiveness of parsley cultured cells (in words): each compound alone; for Relative fluorescence: 0.5 μM
Procedure: The activity of inducing disease resistance in plant of compound 1 and compound 2 according to the present invention was also evaluated according to the method of Siegrist, J. et al. The results are shown in Table 9.
(§1) The activity of inducing disease resistance in plant of each of compound 1 and compound 2 was evaluated in the same manner as in Evaluation Example 1 by adopting the method practiced in Evaluation Example 1, i.e., the method in which the elicitor responsiveness of parsley cultured cells was measured by the detection of phytoalexin using fluorescence.
as §1, with “inducing” for “inducing disease”, “resistance to” for “resistance in”, “plant diseases” for “plant”, “compound 3” for “compound 1”, “compound 4” for “compound 2”

[3] = tested on: cucumber bacterial blight bacterium (Pseudomonas syringae pv. lachrymans); assay: Evaluation Example 2: paper disc test for direct antimicrobial activity against cucumber bacterial blight bacterium; assay type: cell-based; details: tested as 3:2 mixture, 60 + 40 ppm
Procedure: That is, cucumber bacterial blight bacterium was mixed with a potato semisynthetic medium (a decoction consisting of 300 g of potato and 1 L of distilled water, calcium nitrate tetrahydrate 0.5 g, disodium hydrogenphosphate dodecahydrate 2 g, peptone 5 g, sucrose 20 g, powdered agar 15 g) maintained at 45° C., in a proportion of 1×10^8 CFU/mL, and the resulting mixture was dispensed in 20 mL aliquots into sterilized Petri dishes. After the solidification of the medium, 50 μL of a solution obtained by dissolving a 3:2 mixture of compounds 1 and 2 in dimethyl sulfoxide to a concentration of 100 μg/mL was infiltrated into a paper disc with a diameter of 8 mm, and then the paper disc was allowed to stand on the medium. After 48 hours of cultivation at 25° C. in the dark, the activity was evaluated on the basis of the presence of an inhibition zone around the periphery

[4] = tested on: Gram-negative bacteria; details: patent document 3, non-patent documents 4 and 5; cited from earlier work
[5] = tested on: Fusarium wilt of cucumber fungus; details: patent document 3; cited from earlier work
[6] = tested on: cucumber bacterial blight bacterium; details: patent document 3; cited from earlier work
[7] = Solubility in solvents; assay type: physicochemical
[8] = Evaluation Example 6, elicitor treatment No
[9] = Evaluation Example 6, elicitor treatment Yes
[10] = Evaluation Example 7, elicitor No
[11] = Evaluation Example 7, elicitor Yes
[12] = in ethyl acetate, chloroform and hexane
[13] = in methanol, butanol, isopropyl alcohol and dimethyl sulfoxide

Row | Compound | Elicitor responsiveness of parsley cultured cells (in words) [1] | Elicitor responsiveness of parsley cultured cells (in words) ([2]; Evaluation Example 6) | Relative fluorescence [2, 8] | Relative fluorescence [2, 9] | Direct antimicrobial activity against cucumber bacterial blight bacterium (in words) [3] | Antimicrobial activity against Gram-negative bacteria [4] | Antimicrobial activity against Fusarium wilt of cucumber fungus [5] | Antimicrobial activity against cucumber bacterial blight bacterium [6] | Elicitor responsiveness of parsley cultured cells (in words) ([2]; Evaluation Example 7) | Relative fluorescence [2, 10] | Relative fluorescence [2, 11] | Solubility [7, 12] | Solubility [7, 13]
1 | CC1NC(=O)C(CC(N)=O)NC(=O)C(C(C)O)NC(=O)C(C(C)C)NC(=O)C(C(C)C)NC(=O)C(NC(=O)CC(O)CCCCCCCCCCCCNC(=N)N)C(C)OC1=O (stereo not drawn) [Compound 1, Fusaricidin A] ({Pentadecanoyl(3ξ-OH,15-Gua)}-TVVTNA; ester 1-C; configuration not given here) | improve the elicitor responsiveness | improves the elicitor responsiveness | 98.5 | 1000 | do not exhibit direct antimicrobial activity | inactive | no antimicrobial activity | inactive | – | – | – | – | –
2 | CC1NC(=O)C(CCC(N)=O)NC(=O)C(C(C)O)NC(=O)C(C(C)C)NC(=O)C(C(C)C)NC(=O)C(NC(=O)CC(O)CCCCCCCCCCCCNC(=N)N)C(C)OC1=O (stereo not drawn) [Compound 2, Fusaricidin B] ({Pentadecanoyl(3ξ-OH,15-Gua)}-TVVTQA; ester 1-C; configuration not given here) | improve the elicitor responsiveness | improves the elicitor responsiveness | 100.7 | 1000 | do not exhibit direct antimicrobial activity | inactive | – | – | – | – | – | – | –
3 | CC(N)C(=O)OC(C)C1NC(=O)C(C(C)C)NC(=O)C(C(C)C)NC(=O)C(NC(=O)CC(O)CCCCCCCCCCCCNC(=N)N)C(C)OC(=O)C(C)NC(=O)C(CC(N)=O)NC1=O (stereo not drawn) [Compound 3] ({Pentadecanoyl(3ξ-OH,15-Gua)}-TVVT(Ala)NA; ester 1-C; configuration not given here) | – | – | – | – | – | – | – | – | improve the elicitor responsiveness | 3.1 | 222.7 | insoluble | readily soluble
4 | CC(N)C(=O)OC(C)C1NC(=O)C(C(C)C)NC(=O)C(C(C)C)NC(=O)C(NC(=O)CC(O)CCCCCCCCCCCCNC(=N)N)C(C)OC(=O)C(C)NC(=O)C(CCC(N)=O)NC1=O (stereo not drawn) [Compound 4] ({Pentadecanoyl(3ξ-OH,15-Gua)}-TVVT(Ala)QA; ester 1-C; configuration not given here) | – | – | – | – | – | – | – | – | improve the elicitor responsiveness | 0.7 | 504.8 | insoluble | readily soluble
